Test results from patent US10583119B2, “Compounds, compositions and methods for making the same” (Signum Biosciences, Inc., priority 2008, dated 2020).

Experiments:
[1] = biological target: T1, protein phosphatase specific protein methylesterase (MEase) (Homo sapiens, UniProt Q9Y570); experiment: PP2A demethylation with [3H]-SAM and purified proteins (methylesterase activity); type: biochemical; settings: purified methylated PP2A and MEase; read-out: ME (IC50)
T1 construct: made in house
T1 sequence (Q9Y570 1-386): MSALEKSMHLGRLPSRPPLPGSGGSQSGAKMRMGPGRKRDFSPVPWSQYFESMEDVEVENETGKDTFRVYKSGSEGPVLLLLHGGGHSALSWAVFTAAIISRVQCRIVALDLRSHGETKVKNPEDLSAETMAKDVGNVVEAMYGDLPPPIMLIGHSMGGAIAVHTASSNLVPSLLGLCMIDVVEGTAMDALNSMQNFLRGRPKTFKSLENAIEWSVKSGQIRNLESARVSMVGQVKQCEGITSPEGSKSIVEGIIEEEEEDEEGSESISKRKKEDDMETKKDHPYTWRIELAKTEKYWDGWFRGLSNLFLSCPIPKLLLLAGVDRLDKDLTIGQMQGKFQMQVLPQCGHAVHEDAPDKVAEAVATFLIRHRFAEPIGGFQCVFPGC
Experimental: PP2A (methylated and unmethylated) were eluted with 1.6 mL of Buffer A containing 350 mM NaCl. Fractions (0.2 mL each) were collected and the radioactivity in each fraction was measured using the scintillation counter (LS 6000SE, Beckman). Fractions with highest radioactivity were containing purified methylated PP2A were pooled with a total volume of 0.6 mL-0.8 mL. Purified methylated PP2A (50 nM-100 nM) was incubated with MEase (5 nM-20 nM) in 20 μl-50 μl reaction at room temperature for 30 minutes. The reaction was terminated by adding TCA (2 μl-6 μl) to a final concentration of 10%. Released [^3H]-methanol in supernatants was counted with scintillation counter (LS 6000SE, Beckman).

[2] = biological target: T2, protein phosphatase 2A specific methyltransferase (MTase) (Homo sapiens, UniProt Q9UIC8); experiment: PP2A methylation in 96-well plate format (methyltransferase activity); type: biochemical; settings: purified PP2A, MTase and [3H]-SAM; read-out: MT (IC50)
T2 construct: His; made in house
T2 sequence (Q9UIC8 whole entry): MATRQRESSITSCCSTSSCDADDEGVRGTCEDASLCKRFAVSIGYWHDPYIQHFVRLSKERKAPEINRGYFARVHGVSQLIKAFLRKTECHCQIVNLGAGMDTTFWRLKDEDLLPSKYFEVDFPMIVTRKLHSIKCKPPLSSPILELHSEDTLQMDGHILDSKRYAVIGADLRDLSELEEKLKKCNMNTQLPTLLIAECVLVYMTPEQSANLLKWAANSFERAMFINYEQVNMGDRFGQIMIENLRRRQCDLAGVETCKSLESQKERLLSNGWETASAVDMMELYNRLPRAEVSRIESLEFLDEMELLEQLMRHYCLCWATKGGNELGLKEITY
Experimental: Purified PP2A, MTase and [^3H]-SAM, were incubated in reaction buffer at 37° C. At the end of the reaction, mixture was added onto the membranes of 96-well filter plate (Multiscreen™, Millipore). The membranes were then pre-wetted with 70% ethanol (50 μL/well) and then subsequently washed with water (2×200 μL/well). The reaction in each well was terminated and the proteins (5 μL-20 μL) were precipitated by adding 25% ice-cold TCA. The plate was kept on ice for 30 minutes to ensure completion of protein precipitation. Excess of the free SAM was then removed by washing with 5% cold TCA ([…]) and 70% cold ethanol (2×100 μL/well). Membranes were air-dried, radioactivity in each well was counted by TopCount^NXT scintillation counter (Packard) with 25 μL/well of Microsinct™ 20 (PerkinElmer).

[3] = tested on: phosphorylated Tau; experiment: Phosphorylated tau in vivo at four weeks (pS396 Western blot of brain); parameters: species or system mice; settings: 0.1% in chow, phospho-Serine 396
Experimental: Swiss Webster mice (9-12 weeks old) were fed ad libitum, either standard rodent chow (Control), or rodent chow formulated with 0.1 g Compound I-63 per 100 g chow (0.1% Compound I-63) or 0.1 g Compound I-62 per 100 g chow (0.1% Compound I-62); water was changed weekly. Mice were housed at 23° C., on a 12 hour light and dark cycle, with 6 mice per cage. At 4 weeks, six mice from the Control, 0.1% Compound I-63 and 0.1% Compound I-62 groups were sacrificed by cervical dislocation, brains removed, snap-frozen in liquid nitrogen, and stored at −80° C. Brains were homogenized in 350 pi of buffer containing 20 mM MOPS-Na, pH 7.2, 1 mM EDTA/DTT, 0.5 mg/L of aprotinin, leupeptin and pepstatin, 100 nM okadaic acid, and clarified by centrifugation (14000 rpm, 10 min, 4° C.). Supernatant protein concentrations were measured by the Bradford method, 4 volumes of the supernatant and 1 volume of 5×SDS sample buffer were mixed and boiled for 2 minutes. Boiled homogenate ([…]) were loaded on 12% polyacrylamide gels, and transferred to nitrocellulose membranes. […] Protein bands were detected with the ECL Plus reagent (GE Healthcare) and blots scanned on a Molecular Dynamics Storm Imager. […]

[4] = tested on: phosphorylated Tau; experiment: Phosphorylated tau in vivo, weekly up to 4 weeks (PHF1 Western blot of brain); parameters: species or system mice; settings: 0.1% by weight in feed, mouse brain
Experimental: Swiss Webster mice ([…]) were fed ad libitum, either standard rodent chow (Control), or rodent chow formulated with 0.1 g Compound I-63 per 100 g chow (0.1% Compound I-63); water was changed weekly. Mice were housed at 23° C., on a 12 hour light and dark cycle, with 6 mice per cage. At weekly intervals up to 4 weeks, three and six mice from the Control and 0.1% Compound I-63 groups respectively were sacrificed by cervical dislocation, brains removed, snap-frozen in liquid nitrogen, and were stored at −80° C. Brains were homogenized in 350 pi of buffer containing 20 mM MOPS-Na, pH 7.2, 1 mM EDTA/DTT, 0.5 mg/L of aprotinin, leupeptin and pepstatin, 100 nM okadaic acid, and clarified by centrifugation (14,000 rpm, 10 min, 4° C.). Supernatant protein concentrations were measured by the Bradford method, 4 volumes of the supernatant and 1 volume of 5×SDS sample buffer were mixed and boiled for 2 minutes. 40 pg of the boiled homogenate were loaded on 12% polyacrylamide gels, and transferred to nitrocellulose membranes. Membranes are blocked in 5% BSA+TBST for 1 hour at room temperature, and incubated overnight at 4° C. with the following primary antibodies at the indicated dilutions: PHF1 mAb (recognizes phospho-Serine 396/404) at 1:2000, Tau-5 (Millipore; pan-tau mAb) at 1:10,000, and anti-GAPDH (Sigma mAb; used as loading control) at 1:50,000. Protein bands were detected with the ECL Plus reagent (GE Healthcare) and blots were exposed to Kodak XOmat film. Densitometric analyses were performed with ImageJ software. For relative phospho-tau levels of the Compound I-63-treated animals, the ratio of GAPDH-normalized phospho-tau to GAPDH-normalized total tau was further normalized to the corresponding ratios for the control group of mice. Error bars represent the standard error of the means.

CCCCCCCCCCCCCCCCCCCC(=O)NCCc1c[nH]c2ccc(O)cc12 [Compound I-63, N-(2-(5-hydroxy-1H-indol-3-yl)ethyl)icosanamide]
IC50 [1]: < 10 µM
IC50 [2]: 10 to 100 µM
lowering of phosphorylated tau levels in the brain compared to control [3]: 40%
reduction in phosphorylation of tau compared to control ([4]; four weeks): ≥ 70%
reduction in phosphorylation of tau compared to control ([4]; three weeks): > 50%
reduction in phosphorylation of tau compared to control ([4]; two weeks): < 40%
